Measurements as given in ChEMBL document CHEMBL3046086, “In-silico design, synthesis and evaluation of novel DNA-gyrase B inhibitors” (2013).

Experiments:
Staphylococcus aureus = test: Antibacterial activity against Staphylococcus aureus assessed as growth inhibition at 1500 uM after 24 hr by agar well diffusion method; type: functional; conditions: read-out: IZ
Escherichia coli = test: Antibacterial activity against Escherichia coli assessed as growth inhibition at 1500 uM after 24 hr by agar well diffusion method; type: functional; conditions: read-out: IZ

SMILES	zone of inhibition at 1500 µM (Staphylococcus aureus) [mm]	zone of inhibition at 1500 µM (Escherichia coli) [mm]
O=C(O)c1cn(C2CC2)c2cc(N3CCNCC3)c(F)cc2c1=O [CIPROFLOXACIN]	15	–
Cc1cc(=O)[nH]c2cc(Nc3ccncc3C(=O)O)ccc12	9	7
Cc1cc(=O)[nH]c2cc(Nc3ccc(C(=O)O)cc3)ccc12	13.5	12.8
Cc1cc(=O)[nH]c2cc(Nc3ccc(C(=O)O)cn3)ccc12	3	–
Cc1cc(=O)[nH]c2cc(Nc3ncccc3C(=O)O)ccc12	5	4.2
Cc1cc(O)nc2cc(N)ccc12	5.5	4
Cc1cc(=O)[nH]c2cc(Nc3ccccc3C(=O)O)ccc12	8	7
Cc1cc(=O)[nH]c2cc(Nc3nccnc3C(=O)O)ccc12	7.5	8
Cc1cc(=O)[nH]c2cc(Nc3cccc(C(=O)O)c3)ccc12	7	7
Cc1cc(=O)[nH]c2cc(Nc3cnc(C(=O)O)cn3)ccc12	9	8.5
